# Data: PubChem BioAssay AID588778 (Southern Research Institute, 2011)
# Active and inactive are the calls of the source. How the calls were made is not given here.
# System: Vibrio cholerae motility, OD read-out
# Assay: Vibrio cholerae motility inhibitors, OD read-out (AID 588778)
row,SMILES,IC50
1,COC(=O)NC12CC3CC(CC(C3)C1)C2,16.4 mg/L (inactive)
2,O=C(Oc1ccc(Cl)c2cccnc12)c1cccs1,12.8 mg/L (inactive)
3,O=C(N/C(=C/c1cccs1)c1nc2ccccc2[nH]1)c1cccs1,16.8 mg/L (inactive)
4,Nc1nc(-c2ccccc2)cc(N2CCCCC2)n1,14.3 mg/L (inactive)
5,Nc1nc(NC(=O)c2ccco2)nn1-c1ccccc1,11.3 mg/L
6,O=[N+]([O-])c1nn(Cc2c(F)cccc2Cl)cc1Cl,1.4 mg/L
7,CC(NC(=O)c1ccc([N+](=O)[O-])o1)C12CC3CC(CC(C3)C1)C2 (configuration not stated),3.3 mg/L (inactive)
8,NC(=O)NNc1c2ccccc2nc2ccccc12,13 mg/L (inactive)
9,CC(=O)NC(=S)NNC(=O)c1ccc(-c2ccccc2)cc1,1.96 mg/L (inactive)
10,COC(=O)c1sc2cc(NC(=S)NC(C)c3ccc4c(c3)OCO4)ccc2c1Cl (configuration not stated),46.8 mg/L (inactive)
11,O=[N+]([O-])c1nn(Cc2ccc(F)cc2)cc1Br,4.1 mg/L
12,Cc1ccc(C)c(Nc2nc(NCCO)c3ccccc3n2)c1,6.87 mg/L
13,Cc1ccc(OCCn2ccnc2)c(Cl)c1,25.9 mg/L (inactive)
14,FC(F)(F)c1ccccc1-n1c(-c2cccnc2)n[nH]c1=S,6.15 mg/L (inactive)
15,CC[n+]1c(/C=C/c2ccc(-c3ccc([N+](=O)[O-])cc3)o2)ccc2ccccc21,15.3 mg/L (inactive)
16,O=C1CC(Sc2ccccc2C(=O)O)C(=O)N1 (configuration not stated),8.99 mg/L (inactive)
17,C=CCNC(=S)Nc1ccc(Cl)c(Cl)c1,26.4 mg/L (inactive)
